# How the values were obtained:
# RORα = target: T1, RORα (Homo sapiens, UniProt P35398); assay: Gal4-RORα LBD / UAS luciferase cotransfection assay; format: cell-based; details: Gal4 chimeric cotransfection
# T1 construct: expressed in transfected cells; host or cells: HEK293T
# T1 sequence (P35398 272-510 limits assumed): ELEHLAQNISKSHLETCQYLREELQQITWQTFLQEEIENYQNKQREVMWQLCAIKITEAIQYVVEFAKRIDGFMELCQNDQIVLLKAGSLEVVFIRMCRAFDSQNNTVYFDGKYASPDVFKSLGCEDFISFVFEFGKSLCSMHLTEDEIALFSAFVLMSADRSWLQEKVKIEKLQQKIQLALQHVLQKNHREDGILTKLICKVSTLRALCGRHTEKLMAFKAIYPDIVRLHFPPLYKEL
# Protocol: (§1) The cells were treated with either DMSO or various compounds as indicated four hours after replating. Following additional 20 hour incubation, luciferase levels were assayed by one-step addition of 20 μL BriteLite (Perkin Elmer) and read using an Envision multilabel plate reader (Perkin Elmer).
# (§2) Cotransfection assays were performed as previously described in HEK293 cells (Gal4 cotransfection assay or IL-17 luciferase reporter)[8]. HEK293 and the mouse lymphoma EL4 (ATCC) cells were maintained in DMEM supplemented with 10% FBS plus antibiotics (penicillin and streptomycin; Invitrogen).
# FXR = target: T2, FXR (Homo sapiens, UniProt Q96RI1); assay: Gal4-FXR / UAS luciferase cotransfection assay; format: cell-based; details: Gal4 chimeric cotransfection
# T2 sequence (Q96RI1 262-486 limits assumed): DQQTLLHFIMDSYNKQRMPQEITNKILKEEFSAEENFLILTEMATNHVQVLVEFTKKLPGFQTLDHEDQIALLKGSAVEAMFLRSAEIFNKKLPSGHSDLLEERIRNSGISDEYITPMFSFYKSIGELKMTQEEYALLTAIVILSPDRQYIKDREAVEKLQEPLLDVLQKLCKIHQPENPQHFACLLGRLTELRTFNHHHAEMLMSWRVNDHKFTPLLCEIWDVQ
# Protocol: as §2
# EL-4 cells = assay: Intracellular IL-17 in PMA/ionomycin stimulated EL-4 cells (flow cytometry); format: cell-based, murine; details: 5 μM, compared to vehicle treated cells
# Protocol: The treatment of EL4 with SR2211 repressed the Il17 gene expression to a greater extent as compared to digoxin. […] In order to measure the effect of SR2211 on IL-17 production, we determined the intracellular levels of IL-17 using flow cytometry. After the stimulation of EL-4 cells with PMA/ionomycin for 3 hr, the cells were treated with BD GolgiPlug™ (protein transport inhibitor) to allow intracellular accumulation of cytokines. After 2 hr, the cells were fixed and stained to analyze the IL-17 by flow cytometry.
# For intracellular cytokine staining, cells were stimulated with PMA (50 ng/Ml) and lonomycin (1 ug/ml) for 5 hrs. After 3 hrs of incubation, BD Golgiplug (BD Bioscience) was added and incubated for 2 hrs. Then, cells were fixed, permeabilized, and stained with PEIL17A Ab (BD Biosciences). Cell sorting was performed using LSRII (BD Biosciences). • 1. Ivanov, I I; McKenzie, B. S.; Zhou, L.; Tadokoro, C. E.; Lepelley, A.; Lafaille, J. J.; Cua, D. J.; Littman, D. R. (2006) The orphan nuclear receptor RORgammat directs the differentiation program of proinflammatory IL-17+ T helper cells. Cell 126, 1121-1133. • 2. Nakae, S.; Nambu, A.; Sudo. K.; Iwakura. Y. (2003) Suppression of immune induction of collagen-induced arthritis in IL-17-deficient mice. J Immunol 171, 6173-6177. • 3. Jetten. […]
# VP16 = assay: Gal4 DBD-VP16 / UAS luciferase control assay; format: cell-based
# Protocol: as §1
structure (smiles),measurement,setting,value
"OC(c1ccc(-c2ccc(CN3CCN(Cc4ccncc4)CC3)cc2)c(F)c1)(C(F)(F)F)C(F)(F)F [SR2211, 1,1,1,3,3,3-hexafluoro-2-(2-fluoro-4′-((4-(pyridin-4-ylmethyl)piperazin-1-yl)methyl)-[1,1′-biphenyl]-4-yl)propan-2-ol]",effect on transcriptional activity of RORα,RORα,did not have any impact on the transcriptional activity of RORα
same,effect on transcriptional activity of FXR,FXR,no effect on the transcriptional activity of FXR
same,IL-17 intracellular staining,EL-4 cells,significant inhibition of IL-17 intracellular staining
same,luciferase activity of Gal4 DBD-VP16 (off-target effects/toxicity),VP16,no change in the luciferase activity of Gal4 DBD-VP16

# From US9586928B2 (The Scripps Research Institute, priority 2011, dated 2017)
